Measured values taken from patent US20250171511A1, “ANTIVIRAL PEPTIDES AND METHODS OF USE THEREOF” (Versitech Limited, priority 2021, published 2025).
Read-outs that look alike come from different tables or passages of the source. Where no end group is shown, it is not given here. 4MPA = not defined here

Tests used:
SARS-CoV-2 [1] = test: Viral entry fluorescence assay; assay type: cell-based
SARS-CoV-2 [2] = test: Viral attachment/entry and replication in VeroE6 cells by RT-qPCR; assay type: cell-based
[3] = system: SARS-CoV-2 (B.1. 617.2, Delta); test: Post-exposure antiviral activity in hamsters, Delta; assay type: in vivo, hamster; details: 0.5 mg kg^−1, post exposure
VeroE6 cells [4] = test: Endosomal acidification assay; assay type: cell-based
Experimental: Endosomal acidification was detected with a pH-sensitive dye (pHrodo green dextran, Invitrogen, Cat^# P35365) according to the manufacturer's instructions as previously described but with slight modification (H. Zhao, et al., Nat Commun, 9 (2018) 2358). First, VeroE6 cells were treated with DMEM, 4H30 (25.0 μg ml^−1), or bafilomycin A1 (50.0 nM) at 4° C. for 15 min. Second, VeroE6 cells were added with 100 μg ml^−1 of pH-sensitive dye and DAPI and then incubated at 4° C. for 15 min. Before taking images, cells were further incubated at 37° C. for 15 min and then cells were washed twice with PBS. Finally, PBS was added to cells and images were taken immediately with confocal microscope (Carl Zeiss LSM 800, Germany).

SARS-CoV-2 [5] = test: Transmission electron microscopy assay; details: virus pretreated
Experimental: To determine the effect of 4H30 on viral particles, SARS-CoV-2 was pretreated by 100 μg ml^−1 of 4H30 or H30 for 1 h. The virus was fixed by formalin for overnight. For spike treated by 4H30 or H30, spike (100 μg ml^−1 mixed with 50 μg ml^−1 of 4H30 or H30. Viral or protein samples were applied to continuous carbon grids. The grids were transferred into 4% uranyl acetate and incubated for 1 min. After removing the solution, the grids were air-dried at room temperature. For each peptide/DNA nanoparticle, three independent experiments were done for taking TEM images by FEI Tecnal G2-20 TEM or Philips CM100-TEM.

[6] = ELISA binding of 4H30 to chondroitin sulfate; details: compared with BSA
SARS-CoV-2 [7] = test: Antiviral activity of GAG-treated 4H30 (viral RNA copy); assay type: cell-based
SARS-CoV-2 (B.1.163) = test: Post-exposure antiviral activity in hamsters, B.1.163; details: hamster, in vivo
Calu-3 cells = test: MTT cytotoxicity assay in Calu-3 cells; assay type: cell-based
Experimental: (§1) Cytotoxicity of peptides was determined by the detection of 50% cytotoxic concentration (CC50) using a tetrazolium-based colorimetric MTT assay (H. Zhao, et al., Sci Rep, 6 (2016) 22008). Briefly, cells were seeded in 96-well cell culture plate at an initial density of 4×10^4 cells per well in DMEM supplemented with 10% FBS and incubated for overnight. Cell culture media were removed and then DMEM supplemented with various concentrations of peptides and 1% FBS were added to each well. After 24 h incubation at 37° C., MTT solution (5 mg ml^−1, 10 μl per well) was added to each well for incubation at 37° C. for 4 h. Then, 100 μl of 10% SDS in 0.01M HCl was added to each well. After further incubation at room temperature with shaking overnight, the plates were read at OD570 using VictorTM X3 Multilabel Reader (PerkinElmer, USA). Cell culture wells without peptides were used as the experiment control and medium only served as a blank control.

HRV-1B = HRV-1B infection, supernatant viral RNA by RT-qPCR; assay type: cell-based; details: RD or H1-Hela cells, 30 hpi
Experimental: (§2) Viruses were treated by 4H30 for infection in RD or H1-Hela cells. Viruses, HRV-1B and HRV-B14 were treated by 4H30 in PBS for 30 min and then the treated viruses were added to RD or H1-Hela cells for infection. After 1 h infection, the un-infected viruses were removed and fresh media with the indicated concentration of 4H30 was added to cells for viral culture. The supernatant viruses were measured at 30 hpi by RT-qPCR. Viral RNA copy (%) was the viral RNA of 4H30-treated virus normalized to that of untreated virus (0). […] The primers for detecting the viral RNA copies: HRV-F1: 5′-[…] -3′; HRV-F2: 5′-[…] -3′, HRV-R: 5′-[…] -3′; HRV-Probe: 5′ HEX-[…] -1ABKFQ 3′ (Y=C or T, K=G or T). The supernatant viruses were measured at 30 hpi.

HRV-B14 = HRV-B14 infection, supernatant viral RNA by RT-qPCR; assay type: cell-based; details: RD or H1-Hela cells, 30 hpi
Experimental: as §2

spike and ACE2 = spike and ACE2 (Severe acute respiratory syndrome coronavirus 2, UniProt P0DTC2); details: ELISA
Experimental: (§3) For determining spike and ACE2 binding, 60 ng S or ACE2 in PBST was incubated with peptides at 37° C. for 30 min.

[8] = system: spike-ACE2 mediated fusion; assay type: cell-based; details: endocytosis pathway
[9] = intranasal
[10] = ELISA binding of 4H30 to heparan sulfate; details: compared with BSA
VeroE6 cells [11] = test: MTT cytotoxicity assay in VeroE6 cells; assay type: cell-based
Experimental: as §1

spike = spike (Severe acute respiratory syndrome coronavirus 2, UniProt P0DTC2); details: ELISA
Experimental: as §3

SARS-CoV-2 [12] = test: Plaque reduction assay against SARS-CoV-2; assay type: cell-based
Experimental: Briefly, peptides were dissolved in PBS or 30mM phosphate buffer (PBS/5) containing 24.6 mM Na2HPO4 and 5.6 mM KH2PO4 at a pH of 7.4. Peptides or bovine serum albumin (BSA, 0.2-25.0 μg ml^−1) were premixed with SARS-CoV-2 at room temperature. After 45-60 min of incubation, peptide-virus mixture was transferred to Vero-E6 cells, correspondingly. At 1 h post infection, infectious media were removed, and 1% low melting agar was added to cells. Cells were fixed using 4% formalin at 2-3 day post infection. […] (0.1%) was added for staining, and the number of plaques was counted.

SARS-CoV-2 [13] = test: SARS-CoV-2 replication in Calu-3 cells pretreated by 4H30; assay type: cell-based

## GAICHPVFCPRRYKQIGTCGLPGTKCCKKP-4MPA (cysteine pairing not given here; reading uncertain; also: printed as GAICHPVFCPRRYKQIGTCGLPGTKCCKKP-4MPA) [Peptide 4H30]
SARS-CoV-2 [1]
  viral clustering and entry: did not cluster viral particles and did not block viral entry
SARS-CoV-2 [1]; virus pretreated, Calu-3 and VeroE6 cells
  viral clustering and entry: cross-link SARS-CoV-2 to form big viral clusters on Calu-3 and VeroE6 cell membrane without viral entry
SARS-CoV-2 [2]
  viral load increase at 6 hpi compared with 1 hpi: 13 fold
SARS-CoV-2 [2]; cells pretreated by 4H30
  viral attachment and/or entry: significantly increased
SARS-CoV-2 [2]; virus pretreated by 4H30
  viral attachment and/or entry: significantly increased
SARS-CoV-2 [2]; at 4 degrees
  SARS-CoV-2 attachment to cells: increase SARS-CoV-2 attachment
SARS-CoV-2 [2]; cell lysate, virus pretreated by 4H30
  viral load at 6 hpi compared with 1 hpi: no significant increase in viral load
[3]
  SARS-CoV-2 replication in hamsters: significantly inhibited
  syncytium formation and bronchial epithelial pathology in lungs: reduced the syncytium formation and bronchial epithelial pathology
VeroE6 cells [4]
  endosomal acidification: inhibition of endosomal acidification
SARS-CoV-2 [5]
  integrity of viral particles under TEM: did not disrupt viral particles
  viral clusters under TEM: cross-linked SARS-CoV-2 to form bigger viral clusters
[6]
  binding to chondroitin sulfate (CS): effectively bind
SARS-CoV-2 [7]; 4H30 treated by 1250 ng/ml of CS or HS
  antiviral activity of GAG-treated 4H30: significantly reduced
SARS-CoV-2 [7]; CS or HS in physiological concentration (50˜100 ng/ml)
  antiviral activity of GAG-treated 4H30: still significantly inhibit viral replication
SARS-CoV-2 (B.1.163)
  SARS-CoV-2 replication in lungs: significantly inhibit
Calu-3 cells
  TC50: higher than 400 μg ml^−1
HRV-1B
  inhibition of HRV-1B, viral RNA copy: effectively inhibited
HRV-B14
  inhibition of HRV-B14, viral RNA copy: effectively inhibited
Spike and ACE2
  binding between spike and ACE2: did not significantly affect
[8]
  spike-ACE2 mediated cell fusion: blocking of spike-ACE2 mediated fusion
[9]; 4 dpi
  pathological and body weight changes: did not cause pathological and body weight changes
[9]; 40 dpi, compared with mock
  histopathological and body weight changes: no significant histopathological and body weight changes
[10]
  binding to heparan sulfate (HS): effectively bind
VeroE6 cells [11]
  TC50: higher than 400 μg ml^−1
spike
  binding to spike: more effectively bound to spike when compared with ACE2
SARS-CoV-2 [12]; virus premixed with peptide in PBS, plaque reduction
  IC50: 0.59 µg/mL
SARS-CoV-2 [12]; virus pretreated by 50 μg ml^−1, then 10,000-fold diluted (0.005 μg ml^−1)
  SARS-CoV-2 infection after dilution of treated virus: significantly inhibited SARS-CoV-2 infection
SARS-CoV-2 [13]
  SARS-CoV-2 replication: did not increase SARS-CoV-2 replication
